Experiment [1] deals with Adenosine receptor A2a (Homo sapiens, UniProt P29274).
The target in experiment [2] is T1, Alpha-2A adrenergic receptor (Homo sapiens, UniProt P08913).
T1 sequence (P08913 whole entry): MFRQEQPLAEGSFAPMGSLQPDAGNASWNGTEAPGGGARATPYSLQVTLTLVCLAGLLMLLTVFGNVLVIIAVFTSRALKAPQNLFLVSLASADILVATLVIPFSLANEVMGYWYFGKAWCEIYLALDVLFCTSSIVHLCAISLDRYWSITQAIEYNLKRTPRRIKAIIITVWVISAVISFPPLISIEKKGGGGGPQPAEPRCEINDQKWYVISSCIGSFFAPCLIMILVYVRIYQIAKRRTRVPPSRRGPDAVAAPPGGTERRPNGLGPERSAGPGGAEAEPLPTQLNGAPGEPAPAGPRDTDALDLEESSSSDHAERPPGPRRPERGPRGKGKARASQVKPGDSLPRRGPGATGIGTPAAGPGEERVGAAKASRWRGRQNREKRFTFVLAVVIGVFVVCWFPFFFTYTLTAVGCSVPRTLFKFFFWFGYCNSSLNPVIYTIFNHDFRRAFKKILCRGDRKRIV
The class given is functional, cell-based.

Experiment [3] concerns the target Growth hormone secretagogue receptor type 1 (Homo sapiens, UniProt Q92847).
For experiment [4], the target named is T2, 5-hydroxytryptamine receptor 1A (Homo sapiens, UniProt P08908).
T2 sequence (P08908 whole entry): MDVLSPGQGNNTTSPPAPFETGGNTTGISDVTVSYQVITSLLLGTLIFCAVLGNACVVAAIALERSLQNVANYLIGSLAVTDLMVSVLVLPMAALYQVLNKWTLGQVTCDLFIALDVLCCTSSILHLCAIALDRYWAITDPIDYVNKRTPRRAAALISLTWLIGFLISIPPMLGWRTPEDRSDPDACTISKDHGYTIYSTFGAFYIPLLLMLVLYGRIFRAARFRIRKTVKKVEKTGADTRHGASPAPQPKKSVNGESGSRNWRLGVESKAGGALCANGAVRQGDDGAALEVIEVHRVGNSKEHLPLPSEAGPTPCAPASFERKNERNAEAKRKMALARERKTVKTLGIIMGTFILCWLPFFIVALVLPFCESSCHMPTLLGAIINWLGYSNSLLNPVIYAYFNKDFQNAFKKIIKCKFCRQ
The class given is functional, cell-based.

The target of experiment [5] is T3, 5-hydroxytryptamine receptor 2C (Homo sapiens, UniProt P28335).
T3 sequence (P28335 whole entry): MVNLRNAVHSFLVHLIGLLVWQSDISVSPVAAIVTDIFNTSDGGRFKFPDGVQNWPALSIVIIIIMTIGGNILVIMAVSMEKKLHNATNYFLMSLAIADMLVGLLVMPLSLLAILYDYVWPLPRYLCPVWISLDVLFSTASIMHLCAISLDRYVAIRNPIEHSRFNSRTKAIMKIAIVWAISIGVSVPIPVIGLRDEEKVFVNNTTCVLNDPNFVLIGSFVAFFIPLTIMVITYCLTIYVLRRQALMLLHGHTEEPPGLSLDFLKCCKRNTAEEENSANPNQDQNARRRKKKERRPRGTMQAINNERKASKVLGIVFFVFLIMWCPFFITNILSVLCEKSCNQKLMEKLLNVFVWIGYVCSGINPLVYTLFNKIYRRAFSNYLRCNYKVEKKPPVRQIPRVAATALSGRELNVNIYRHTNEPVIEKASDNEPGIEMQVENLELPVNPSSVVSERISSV

Experiment [6] deals with Voltage-gated inwardly rectifying potassium channel KCNH2 (Homo sapiens, UniProt Q12809). The class given is functional. The following applies: read-out: AC50.
The target of experiment [7] is Motilin receptor (Homo sapiens, UniProt O43193).
Experiment [8] concerns the target Delta-type opioid receptor (Homo sapiens, UniProt P41143).
The target of experiment [9] is 3',5'-cyclic-AMP phosphodiesterase 4D (Homo sapiens, UniProt Q08499). The class given is functional.
The target of experiment [10] is T4, Equilibrative nucleoside transporter 1 (Homo sapiens, UniProt Q99808).
T4 sequence (Q99808 whole entry): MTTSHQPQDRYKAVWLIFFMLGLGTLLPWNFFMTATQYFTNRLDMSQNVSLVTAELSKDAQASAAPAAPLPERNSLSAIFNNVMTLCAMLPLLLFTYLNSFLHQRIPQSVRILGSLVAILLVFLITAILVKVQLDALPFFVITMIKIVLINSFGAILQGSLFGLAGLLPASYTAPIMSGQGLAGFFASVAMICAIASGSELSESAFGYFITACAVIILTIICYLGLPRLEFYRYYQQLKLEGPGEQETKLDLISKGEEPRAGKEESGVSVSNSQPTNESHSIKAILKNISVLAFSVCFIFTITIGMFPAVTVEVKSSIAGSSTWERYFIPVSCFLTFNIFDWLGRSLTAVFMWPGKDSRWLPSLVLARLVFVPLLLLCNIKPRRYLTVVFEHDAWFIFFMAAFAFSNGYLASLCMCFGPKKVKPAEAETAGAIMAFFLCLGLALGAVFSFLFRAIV

In experiment [11] the target is Sodium-dependent dopamine transporter (Homo sapiens, UniProt Q01959).
Experiment [12] addresses Sodium-dependent noradrenaline transporter (Homo sapiens, UniProt P23975).
In experiment [13] the target is cGMP-inhibited 3',5'-cyclic phosphodiesterase 3A (Homo sapiens, UniProt Q14432). The class given is functional.
The target in experiment [14] is D(3) dopamine receptor (Homo sapiens, UniProt P35462).
Note: assay procedure not described here.

Chain of Adenosine receptor A2a (P29274 whole entry): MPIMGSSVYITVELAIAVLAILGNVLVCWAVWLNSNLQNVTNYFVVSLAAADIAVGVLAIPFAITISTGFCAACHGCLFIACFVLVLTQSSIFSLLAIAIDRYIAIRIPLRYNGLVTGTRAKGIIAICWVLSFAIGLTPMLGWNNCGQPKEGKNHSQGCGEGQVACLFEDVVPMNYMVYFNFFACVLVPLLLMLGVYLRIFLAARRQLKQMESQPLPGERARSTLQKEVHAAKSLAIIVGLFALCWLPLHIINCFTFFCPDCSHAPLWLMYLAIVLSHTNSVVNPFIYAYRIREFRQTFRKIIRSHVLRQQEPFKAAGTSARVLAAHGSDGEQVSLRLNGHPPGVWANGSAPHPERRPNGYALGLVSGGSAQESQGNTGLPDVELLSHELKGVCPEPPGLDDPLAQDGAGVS
Chain of Sodium-dependent noradrenaline transporter (P23975 whole entry): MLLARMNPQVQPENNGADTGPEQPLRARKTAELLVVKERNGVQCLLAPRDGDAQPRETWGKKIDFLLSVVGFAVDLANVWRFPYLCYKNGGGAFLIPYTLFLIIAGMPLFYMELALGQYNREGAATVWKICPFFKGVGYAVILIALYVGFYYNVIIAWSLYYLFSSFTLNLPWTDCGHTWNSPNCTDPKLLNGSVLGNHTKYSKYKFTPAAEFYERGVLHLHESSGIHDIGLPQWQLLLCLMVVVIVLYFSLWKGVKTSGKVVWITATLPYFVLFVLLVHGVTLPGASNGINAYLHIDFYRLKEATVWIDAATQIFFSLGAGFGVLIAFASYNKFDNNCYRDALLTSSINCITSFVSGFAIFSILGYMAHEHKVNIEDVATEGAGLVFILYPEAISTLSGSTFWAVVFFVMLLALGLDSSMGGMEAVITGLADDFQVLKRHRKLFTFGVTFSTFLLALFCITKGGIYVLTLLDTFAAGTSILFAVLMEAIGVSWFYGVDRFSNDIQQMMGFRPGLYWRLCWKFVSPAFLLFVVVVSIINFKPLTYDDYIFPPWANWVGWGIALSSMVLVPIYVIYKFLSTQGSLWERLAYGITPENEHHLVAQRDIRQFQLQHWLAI
Chain of cGMP-inhibited 3',5'-cyclic phosphodiesterase 3A (Q14432 whole entry): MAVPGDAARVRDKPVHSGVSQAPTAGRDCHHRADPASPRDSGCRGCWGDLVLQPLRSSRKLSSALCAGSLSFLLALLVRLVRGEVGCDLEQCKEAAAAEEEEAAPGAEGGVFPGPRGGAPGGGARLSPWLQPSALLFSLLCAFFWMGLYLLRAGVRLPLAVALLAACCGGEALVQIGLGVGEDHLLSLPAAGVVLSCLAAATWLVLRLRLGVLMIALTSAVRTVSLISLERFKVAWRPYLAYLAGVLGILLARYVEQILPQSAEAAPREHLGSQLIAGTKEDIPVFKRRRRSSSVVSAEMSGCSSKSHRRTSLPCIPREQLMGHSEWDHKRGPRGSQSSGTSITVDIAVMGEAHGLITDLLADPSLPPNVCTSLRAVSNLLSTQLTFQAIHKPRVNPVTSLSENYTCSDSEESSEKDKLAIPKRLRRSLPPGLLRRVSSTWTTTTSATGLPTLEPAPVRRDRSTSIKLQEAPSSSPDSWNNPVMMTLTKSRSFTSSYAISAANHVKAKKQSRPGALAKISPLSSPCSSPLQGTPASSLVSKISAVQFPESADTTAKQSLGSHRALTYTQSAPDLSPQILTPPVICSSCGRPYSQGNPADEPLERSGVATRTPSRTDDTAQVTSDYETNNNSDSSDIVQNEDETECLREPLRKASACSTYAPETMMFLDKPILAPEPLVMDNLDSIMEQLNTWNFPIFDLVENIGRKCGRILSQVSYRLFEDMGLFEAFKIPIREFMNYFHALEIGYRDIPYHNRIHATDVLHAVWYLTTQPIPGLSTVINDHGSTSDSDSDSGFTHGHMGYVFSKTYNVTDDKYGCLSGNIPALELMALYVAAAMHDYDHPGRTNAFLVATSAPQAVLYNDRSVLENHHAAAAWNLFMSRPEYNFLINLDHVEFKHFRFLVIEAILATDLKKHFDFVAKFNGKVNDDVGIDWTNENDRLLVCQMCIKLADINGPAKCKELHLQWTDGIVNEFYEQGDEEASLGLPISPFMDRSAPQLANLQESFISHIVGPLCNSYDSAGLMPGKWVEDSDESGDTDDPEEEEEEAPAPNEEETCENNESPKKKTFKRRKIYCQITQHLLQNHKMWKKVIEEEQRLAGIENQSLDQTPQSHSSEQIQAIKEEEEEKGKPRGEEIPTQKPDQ
Chain of Voltage-gated inwardly rectifying potassium channel KCNH2 (Q12809 whole entry): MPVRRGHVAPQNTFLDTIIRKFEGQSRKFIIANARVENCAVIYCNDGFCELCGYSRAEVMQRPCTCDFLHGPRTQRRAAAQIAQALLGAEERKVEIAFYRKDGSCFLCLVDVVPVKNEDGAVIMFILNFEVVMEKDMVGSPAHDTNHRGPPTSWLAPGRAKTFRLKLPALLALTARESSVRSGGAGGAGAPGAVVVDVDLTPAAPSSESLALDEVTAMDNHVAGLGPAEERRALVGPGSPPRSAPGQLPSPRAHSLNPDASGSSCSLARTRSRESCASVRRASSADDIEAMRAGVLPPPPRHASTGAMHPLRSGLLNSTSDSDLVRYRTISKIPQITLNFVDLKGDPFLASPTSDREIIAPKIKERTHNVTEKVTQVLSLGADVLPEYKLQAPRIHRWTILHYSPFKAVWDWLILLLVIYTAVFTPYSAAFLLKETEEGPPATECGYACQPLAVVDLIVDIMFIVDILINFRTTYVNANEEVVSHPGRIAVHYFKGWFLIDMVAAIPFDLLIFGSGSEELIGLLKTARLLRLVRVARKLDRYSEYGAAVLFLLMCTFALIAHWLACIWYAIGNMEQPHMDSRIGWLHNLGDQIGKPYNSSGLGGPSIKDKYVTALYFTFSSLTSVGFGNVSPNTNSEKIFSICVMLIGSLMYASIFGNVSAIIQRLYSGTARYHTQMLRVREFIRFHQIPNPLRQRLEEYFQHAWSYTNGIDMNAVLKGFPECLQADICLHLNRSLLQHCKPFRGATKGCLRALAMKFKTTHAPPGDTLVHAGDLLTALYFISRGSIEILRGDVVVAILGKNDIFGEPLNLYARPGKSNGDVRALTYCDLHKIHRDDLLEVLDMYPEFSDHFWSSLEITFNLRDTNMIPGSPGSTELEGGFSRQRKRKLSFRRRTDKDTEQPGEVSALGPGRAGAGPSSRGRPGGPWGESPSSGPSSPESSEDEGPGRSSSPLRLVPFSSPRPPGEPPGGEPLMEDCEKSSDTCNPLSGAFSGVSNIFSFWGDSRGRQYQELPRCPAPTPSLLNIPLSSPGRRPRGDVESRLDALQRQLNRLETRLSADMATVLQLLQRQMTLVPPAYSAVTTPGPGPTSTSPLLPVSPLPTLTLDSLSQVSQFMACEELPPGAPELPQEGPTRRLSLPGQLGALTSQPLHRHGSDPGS
Chain of 3',5'-cyclic-AMP phosphodiesterase 4D (Q08499 whole entry): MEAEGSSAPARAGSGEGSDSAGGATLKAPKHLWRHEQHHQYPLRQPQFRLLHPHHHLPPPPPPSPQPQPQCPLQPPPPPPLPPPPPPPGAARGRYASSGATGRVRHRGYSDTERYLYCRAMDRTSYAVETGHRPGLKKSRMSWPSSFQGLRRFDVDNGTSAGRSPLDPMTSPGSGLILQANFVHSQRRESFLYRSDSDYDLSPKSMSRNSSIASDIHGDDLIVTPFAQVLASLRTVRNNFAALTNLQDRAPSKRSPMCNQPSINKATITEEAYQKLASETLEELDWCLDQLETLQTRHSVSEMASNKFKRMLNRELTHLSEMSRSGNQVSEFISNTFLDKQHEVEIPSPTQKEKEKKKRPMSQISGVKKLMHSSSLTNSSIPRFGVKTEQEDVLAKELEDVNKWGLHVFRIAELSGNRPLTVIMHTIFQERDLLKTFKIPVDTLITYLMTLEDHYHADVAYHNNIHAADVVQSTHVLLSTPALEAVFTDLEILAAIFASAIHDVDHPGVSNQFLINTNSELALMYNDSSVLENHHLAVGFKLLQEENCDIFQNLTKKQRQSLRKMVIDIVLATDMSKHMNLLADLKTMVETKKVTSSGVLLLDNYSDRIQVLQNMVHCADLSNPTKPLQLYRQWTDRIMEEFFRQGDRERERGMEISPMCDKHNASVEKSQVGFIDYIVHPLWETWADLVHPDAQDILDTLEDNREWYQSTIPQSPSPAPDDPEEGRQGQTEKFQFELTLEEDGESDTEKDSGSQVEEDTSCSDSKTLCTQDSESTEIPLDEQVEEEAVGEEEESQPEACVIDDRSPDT
Chain of Delta-type opioid receptor (P41143 whole entry): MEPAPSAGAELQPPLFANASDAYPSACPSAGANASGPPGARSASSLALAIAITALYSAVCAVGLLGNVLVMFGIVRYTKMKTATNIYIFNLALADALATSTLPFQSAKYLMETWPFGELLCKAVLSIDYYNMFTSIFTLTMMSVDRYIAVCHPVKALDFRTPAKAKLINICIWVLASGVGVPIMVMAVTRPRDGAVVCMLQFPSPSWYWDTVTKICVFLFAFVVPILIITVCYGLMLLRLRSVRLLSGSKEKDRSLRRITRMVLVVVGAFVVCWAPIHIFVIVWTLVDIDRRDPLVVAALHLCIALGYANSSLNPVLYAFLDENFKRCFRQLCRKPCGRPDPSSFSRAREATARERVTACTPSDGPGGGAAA
Chain of Motilin receptor (O43193 whole entry): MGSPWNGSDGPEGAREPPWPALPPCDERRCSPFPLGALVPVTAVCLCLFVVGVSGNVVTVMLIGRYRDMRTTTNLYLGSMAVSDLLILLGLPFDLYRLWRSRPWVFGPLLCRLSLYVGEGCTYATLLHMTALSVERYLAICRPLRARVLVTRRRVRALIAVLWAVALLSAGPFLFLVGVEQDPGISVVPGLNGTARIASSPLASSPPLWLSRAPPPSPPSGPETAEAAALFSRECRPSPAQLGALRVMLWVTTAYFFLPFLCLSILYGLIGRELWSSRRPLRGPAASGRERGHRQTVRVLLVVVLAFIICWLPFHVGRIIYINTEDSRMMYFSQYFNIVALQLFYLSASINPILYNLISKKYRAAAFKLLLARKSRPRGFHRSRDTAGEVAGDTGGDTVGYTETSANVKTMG

For the compound `NS(=O)(=O)c1cc2c(cc1Cl)NCNS2(=O)=O` [HYDROCHLOROTHIAZIDE], the AC50 in experiment [1] was above 30 µM; in experiment [2], above 10 µM; in experiment [3], above 30 µM; in experiment [4] it was above 10 µM; in experiment [5], above 10 µM; in experiment [6], above 30 µM. The AC50 in experiment [7] is above 10 µM; in experiment [8] it was above 10 µM; in [9], above 10 µM; in experiment [10], above 30 µM; in experiment [11] it was above 10 µM; in experiment [12] it was above 10 µM. For the same compound, the results for the AC50 in experiment [13] and in experiment [14] were above 30 µM and above 10 µM, respectively.
Turning to `COC(=O)[C@@H]1CC2=CC(=O)CC[C@]2(C)[C@@]23O[C@@H]2C[C@@]2(C)[C@@H](CC[C@@]24CCC(=O)O4)[C@H]13` [EPLERENONE], the AC50 in [1], in experiment [2], in [3], in experiment [4], in experiment [5] and in experiment [6] was above 30 µM in each case. The AC50 in experiment [7], in [8], in experiment [9], in [10], in [11] and in experiment [12] was above 30 µM in each case. Further, the AC50 in [13] and in experiment [14] was above 30 µM throughout.
As to `NC(=O)c1cnccn1` [PYRAZINAMIDE], the AC50 in [1], in [2], in experiment [3], in experiment [4], in experiment [5] and in experiment [6] was above 30 µM each time. Besides, the AC50 in experiment [7], in experiment [8], in experiment [9], in experiment [10], in [11] and in experiment [12] was above 30 µM each time. In addition, the AC50 in [13] and in [14] was above 30 µM each time.
Take `NC1=NC(=O)C(c2ccccc2)O1` (stereo not given) [PEMOLINE]: the AC50 in experiment [1] was above 30 µM; in [2], above 10 µM; in experiment [3] it was above 30 µM; in experiment [4], above 10 µM; in experiment [5], above 30 µM; in [6], above 30 µM. The AC50 in experiment [7] is above 10 µM; in [8], above 30 µM; in experiment [9], above 30 µM; in experiment [10] it was above 30 µM; in [11], 3.46 µM; in [12], above 30 µM. In addition, the AC50 in [13] and in [14] was above 30 µM in each case.
For `COC(=O)N[C@H](C(=O)N[C@@H](Cc1ccccc1)[C@@H](O)CN(Cc1ccc(-c2ccccn2)cc1)NC(=O)[C@@H](NC(=O)OC)C(C)(C)C)C(C)(C)C` [ATAZANAVIR], the AC50 is above 30 µM in experiment [1]; above 10 µM in experiment [2]; 10.6 µM in experiment [3]; above 10 µM in experiment [4]; above 30 µM in experiment [5]; above 30 µM in experiment [6]. The AC50 in [7] was 6.4 µM; in experiment [8], above 30 µM; in experiment [9], above 30 µM; in experiment [10], above 30 µM; in [11] it was above 30 µM; in experiment [12] it was above 30 µM. The AC50 in [13] and in [14] was above 30 µM throughout.
In the case of `CN1C(=O)CC(C)(c2ccccc2)C1=O` (stereo not given) [METHSUXIMIDE], the AC50 in [1] was above 10 µM; in experiment [2], above 10 µM; in experiment [3], above 10 µM; in experiment [4], above 10 µM; in experiment [5] it was above 30 µM; in experiment [6], above 30 µM. Further, the AC50 in experiment [7] was above 10 µM; in [8], above 30 µM; in experiment [9] it was above 30 µM; in [10], above 10 µM; in [11], above 10 µM; in experiment [12], above 10 µM. Besides, the AC50 in experiment [13] and in experiment [14] was above 30 µM each time.
As for `N[C@@H](C(=O)N[C@@H]1C(=O)N2C(C(=O)O)=C(Cl)CS[C@H]12)c1ccccc1` [CEFACLOR ANHYDROUS], the AC50 in [1] is above 30 µM; in experiment [2], above 30 µM; in [3], above 30 µM; in experiment [4], above 30 µM; in experiment [5], above 10 µM; in experiment [6], above 30 µM. The AC50 in [7], in [8], in experiment [9], in experiment [10], in experiment [11] and in experiment [12] was above 30 µM in each case. In addition, the AC50 in experiment [13] and in experiment [14] was above 30 µM in each case.
On to `Nc1nc(N)c2nc(-c3ccccc3)c(N)nc2n1`, for which the AC50 in experiment [1], in experiment [2], in [3], in experiment [4], in [5] and in [6] was above 30 µM each time. Further, the AC50 in experiment [7] was above 30 µM; in experiment [8] it was above 30 µM; in experiment [9], 24 µM; in [10], above 30 µM; in [11] it was above 30 µM; in experiment [12] it was above 30 µM. The AC50 in experiment [13] and in [14] was above 30 µM throughout.
As to `CC(C)Cc1ccc(CC(=O)O)cc1` [IBUFENAC], the AC50 in experiment [1], in experiment [2], in experiment [3], in experiment [4], in [5] and in experiment [6] was above 30 µM throughout. In addition, the AC50 in experiment [7], in experiment [8], in [9], in experiment [10], in experiment [11] and in experiment [12] was above 30 µM in each case. Further, the AC50 in [13] and in experiment [14] was above 30 µM each time.
Take `C[C@H]1O[C@H](O[C@H]2[C@H](O)[C@@H](O)[C@@H](O[C@H]3[C@H](O)[C@@H](O)C(O)O[C@@H]3CO)O[C@@H]2CO)[C@H](O)[C@@H](O)[C@@H]1N[C@H]1C=C(CO)[C@@H](O)[C@H](O)[C@H]1O` (stereo not given in full) [ACARBOSE]: the AC50 in experiment [1], in experiment [2], in [3], in experiment [4], in experiment [5] and in [6] was above 30 µM each time. In addition, the AC50 was above 30 µM in [7]; above 10 µM in [8]; above 30 µM in experiment [9]; above 30 µM in experiment [10]; above 30 µM in experiment [11]; above 30 µM in experiment [12]. Also, the concentration at half-maximal activity (AC50) in experiment [13] is above 30 µM; in experiment [14], above 10 µM.

The record behind these values is ChEMBL document CHEMBL5291721, “A preclinical secondary pharmacology resource illuminates target-adverse drug reaction associations of marketed drugs” (Nat Commun, 2023).
